Assay results as given in patent US20240317721A1, “PYRAZOLYL DERIVATIVES AS INHIBITORS OF THE KRAS MUTANT PROTEIN” (NOVARTIS AG, priority 2021, published 2024).

target: KRasG12C (M1-K169, biotinylated on the N-terminus) (Homo sapiens (Human), UniProt P01116, G12C); experiment: Covalent competition assay: scintillation proximity assay (SPA) quantifying covalent modification of KRASG12C; type: binding; conditions: competition with radiolabeled covalent probe (Compound B/Compound A), 2 hours incubation, 10 nM KRasG12C
Procedure, shortened: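 Scintillation proximity readout after streptavidin bead capture (30 min) of biotinylated KRasG12C(M1-K169):GDP, 10 nM final, which was covalently labelled over 2 h by 25 nM radio-probe plus 475 nM cold probe unless blocked by compound.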

SMILES	IC50 [nM]
C=CC(=O)N1CC2(CC(n3nc(N4CCN(CC5COCCOC5)CC45CCC5)c(-c4c(Cl)c(C)cc5[nH]ncc45)c3C)C2)C1 (single isomer, unassigned) [Example 185a, 1-(6-(3-(8-((1,4-dioxepan-6-yl)methyl)-5,8-diazaspiro[3.5]nonan-5-yl)-4-(5-chloro-6-methyl-1H-indazol-4-yl)-5-methyl-1H-pyrazol-1-yl)-2-azaspiro[3.3]heptan-2-yl)prop-2-en-1-one]	4100
C=CC(=O)N1CC2(CC(n3nc(N4CC[C@@H](CN5CCN6CCOC[C@H]6C5)CC4(C)C)c(-c4c(Cl)c(Cl)cc5[nH]ncc45)c3C)C2)C1 (single isomer, unassigned) [Example 288a]	4900
C=CC(=O)N1CC2(CC(n3nc(N4CC[C@@H](CN5CC6CC6(O)C5)CC4(C)C)c(-c4c(Cl)c(Cl)cc5[nH]ncc45)c3C)C2)C1 (single isomer, unassigned) [Example 258b]	22
C=CC(=O)N1CC2(CC(n3nc(N4CCN(C[C@@H]5COCCO5)C[C@]4(C)CC)c(-c4c(Cl)c(C)cc5[nH]ncc45)c3C)C2)C1C (single isomer, unassigned) [Example 199a]	> 5000
C=CC(=O)N1CC2(CC(n3nc(N4CCN(S(C)(=O)=O)CC4(C)C)c(-c4c(Cl)c(C)cc5[nH]ncc45)c3C)C2)C1 (single isomer, unassigned) [Example 126a, 1-(6-(4-(5-chloro-6-methyl-1H-indazol-4-yl)-3-(2,2-dimethyl-4-(methylsulfonyl)piperazin-1-yl)-5-methyl-1H-pyrazol-1-yl)-2-azaspiro[3.3]heptan-2-yl)prop-2-en-1-one]	> 50000
C=CC(=O)N1CC2(CC(n3nc(N4CCC(C(=O)N5CCN(C)CC5)CC4(C)C)c(-c4c(Cl)c(Cl)cc5[nH]ncc45)c3C)C2)C1 (single isomer, unassigned) [Example 211b, 1-(6-(4-(5,6-dichloro-1H-indazol-4-yl)-3-(2,2-dimethyl-4-(4-methylpiperazine-1-carbonyl)piperidin-1-yl)-5-methyl-1H-pyrazol-1-yl)-2-azaspiro[3.3]heptan-2-yl)prop-2-en-1-one]	8
C=CC(=O)N1CC2(CC(n3nc(N4CCN(CCOC)CC45CCC5)c(-c4c(Cl)c(Cl)cc5[nH]ncc45)c3C)C2)C1 (single isomer, unassigned) [Example 76a, 1-(6-(4-(5,6-dichloro-1H-indazol-4-yl)-3-(8-(2-methoxyethyl)-5,8-diazaspiro[3.5]nonan-5-yl)-5-methyl-1H-pyrazol-1-yl)-2-azaspiro[3.3]heptan-2-yl)prop-2-en-1-one]	351
C=CC(=O)N1CC2(CC(n3nc(N4CCC(CN5CCOCC5)CC4(C)CC)c(-c4c(Cl)c(C)cc5[nH]ncc45)c3C)C2)C1 (single isomer, unassigned) [Example 222b, 1-(6-(4-(5-chloro-6-methyl-1H-indazol-4-yl)-3-(2-ethyl-2-methyl-4-(morpholinomethyl)piperidin-1-yl)-5-methyl-1H-pyrazol-1-yl)-2-azaspiro[3.3]heptan-2-yl)prop-2-en-1-one]	7
C=CC(=O)N1CC2(CC(n3nc(N4CC[C@@H](CN5CCO[C@@H](CO)C5)CC4(C)C)c(-c4c(Cl)c(Cl)cc5[nH]ncc45)c3C)C2)C1 (single isomer, unassigned) [Example 247b]	9
C=CC(=O)N1CC2(CC(n3nc(N4CC[C@@H](CN5CCOC6(C5)CN(C(C)=O)C6)CC4(C)C)c(-c4c(Cl)c(Cl)cc5[nH]ncc45)c3C)C2)C1 (single isomer, unassigned) [Example 311a]	1300
C=CC(=O)N1CC2(CC(n3nc(N4CC[C@@H](CN5CC6(CCN(C7COC7)C6)C5)CC4(C)C)c(-c4c(Cl)c(Cl)cc5[nH]ncc45)c3C)C2)C1 (single isomer, unassigned) [Example 267a]	720
C=CC(=O)N1CC2(CC(n3nc(N4CCN(c5ccnnc5)C[C@]4(C)CC)c(-c4c(Cl)c(C)cc5[nH]ncc45)c3C)C2)C1 (single isomer, unassigned) [Example 192a]	> 5000
C=CC(=O)N1CC2(CC(n3nc(N4CC[C@@H](CN5CCCC6CN(C)C(=O)C65)CC4(C)C)c(-c4c(Cl)c(Cl)cc5[nH]ncc45)c3C)C2)C1 (single isomer, unassigned) [Example 261b, (4aR*,7aR*)-1-(((R)-1-(1-(2-acryloyl-2-azaspiro[3.3]heptan-6-yl)-4-(5,6-dichloro-1H-indazol-4-yl)-5-methyl-1H-pyrazol-3-yl)-2,2-dimethylpiperidin-4-yl)methyl)-6-methyloctahydro-7H-pyrrolo[3,4-b]pyridin-7-one]	15
C=CC(=O)N1CC2(CC(n3nc(N4CCN(C5COC5)C5COCC54)c(-c4c(Cl)c(C)cc5[nH]ncc45)c3C)C2)C1 (stereo not drawn) [Example 137a, 1-(6-(4-(5-chloro-6-methyl-1H-indazol-4-yl)-5-methyl-3-((4aS*,7aS*)-4-(oxetan-3-yl)hexahydrofuro[3,4-b]pyrazin-1(2H)-yl)-1H-pyrazol-1-yl)-2-azaspiro[3.3]heptan-2-yl)prop-2-en-1-one]	> 5000
C=CC(=O)N1CC2(CC(n3nc(N4CCN(C[C@@H]5COCCO5)C[C@]4(C)CC)c(-c4c(Cl)c(Cl)cc5[nH]ncc45)c3C)C2)C1 (single isomer, unassigned) [Example 89b]	< 5
C=CC(=O)N1CC2(CC(n3nc(N4CCN(C(C)=O)C[C@@H]4C(C)C)c(-c4c(Cl)c(C)cc5[nH]ncc45)c3C)C2)C1 (single isomer, unassigned) [Example 95a]	> 5000
C=CC(=O)N1CC2(CC(n3nc(N4CCN(C5COC5)C[C@]4(C)CC)c(-c4c(Cl)c(C)cc5[nH]ncc45)c3C)C2)C1 (single isomer, unassigned) [Example 133b]	5
C=CC(=O)N1CC2(CC(n3nc(N4CCN(C5COC5)CC45CCOC5)c(-c4c(Cl)c(C)cc5[nH]ncc45)c3C)C2)C1 (single isomer, unassigned) [Example 141b, 1-(6-(4-(5-chloro-6-methyl-1H-indazol-4-yl)-5-methyl-3-(9-(oxetan-3-yl)-2-oxa-6,9-diazaspiro[4.5]decan-6-yl)-1H-pyrazol-1-yl)-2-azaspiro[3.3]heptan-2-yl)prop-2-en-1-one]	104
C=CC(=O)N1CC2(CC(n3nc(N4CCN(C(C)(C)CO)CC45CCC5)c(-c4c(Cl)c(C)cc5[nH]ncc45)c3C)C2)C1 (single isomer, unassigned) [Example 190b, 1-(6-(4-(5-Chloro-6-methyl-1H-indazol-4-yl)-3-(8-(1-hydroxy-2-methylpropan-2-yl)-5,8-diazaspiro[3.5]nonan-5-yl)-5-methyl-1H-pyrazol-1-yl)-2-azaspiro[3.3]heptan-2-yl)prop-2-en-1-one]	111
C=CC(=O)N1CC2(CC(n3nc(N4CCN(CCO)CC4(C)C)c(-c4c(Cl)c(C)cc5[nH]ncc45)c3C)C2)C1 (single isomer, unassigned) [Example 163b, 1-(6-(4-(5-chloro-6-methyl-1H-indazol-4-yl)-3-(4-(2-hydroxyethyl)-2,2-dimethylpiperazin-1-yl)-5-methyl-1H-pyrazol-1-yl)-2-azaspiro[3.3]heptan-2-yl)prop-2-en-1-one]	114
C=CC(=O)N1CC2(CC(n3nc(N4CCN(C5CCOCC5)C[C@]4(C)C(F)F)c(-c4c(Cl)c(C)cc5[nH]ncc45)c3C)C2)C1 (single isomer, unassigned) [Example 151b]	> 5000
C=CC(=O)N1CC2(CC(n3nc(N4CC[C@@H](CN5CCOC[C@@H](O)C5)CC4(C)C)c(-c4c(Cl)c(Cl)cc5[nH]ncc45)c3C)C2)C1 (single isomer, unassigned) [Example 292b]	27
C=CC(=O)N1CC2(CC(n3nc(N4CCN(C5COC5)CC45CCOC5)c(-c4c(Cl)c(C)cc5[nH]ncc45)c3C)C2)C1 (stereo not drawn) [Example 142b, 1-(6-(4-(5-chloro-6-methyl-1H-indazol-4-yl)-5-methyl-3-(9-(oxetan-3-yl)-2-oxa-6,9-diazaspiro[4.5]decan-6-yl)-1H-pyrazol-1-yl)-2-azaspiro[3.3]heptan-2-yl)prop-2-en-1-one]	> 5000
C=CC(=O)N1CC2(CC(n3nc(N4CC[C@@H](CN5CCN(C6COC6)C6COCC65)CC4(C)C)c(-c4c(Cl)c(Cl)cc5[nH]ncc45)c3C)C2)C1 (single isomer, unassigned) [Example 280b, 1-(6-(4-(5,6-dichloro-1H-indazol-4-yl)-3-((R)-2,2-dimethyl-4-(((4aS*,7aR*)-4-(oxetan-3-yl)hexahydrofuro[3,4-b]pyrazin-1(2H)-yl)methyl)piperidin-1-yl)-5-methyl-1H-pyrazol-1-yl)-2-azaspiro[3.3]heptan-2-yl)prop-2-en-1-one]	7
C=CC(=O)N1CC2(CC(n3nc(N4CCN(C5COCCOC5)C[C@]4(C)CC)c(-c4c(Cl)c(C)cc5[nH]ncc45)c3C)C2)C1 (single isomer, unassigned) [Example 159b]	9
C=CC(=O)N1CC2(CC(n3nc(N4CC[C@@H](CN5C[C@H](O)C[C@@H](F)C5)CC4(C)C)c(-c4c(Cl)c(Cl)cc5[nH]ncc45)c3C)C2)C1 (single isomer, unassigned) [Example 300a, 1-(6-(4-(5,6-dichloro-1H-indazol-4-yl)-3-((R)-4-(((3R*,5R*)-3-fluoro-5-hydroxypiperidin-1-yl)methyl)-2,2-dimethylpiperidin-1-yl)-5-methyl-1H-pyrazol-1-yl)-2-azaspiro[3.3]heptan-2-yl)prop-2-en-1-one]	> 5000
C=CC(=O)N1CC2(CC(n3nc(N4CCC(C(=O)N(C)C)CC4(C)C)c(-c4c(Cl)c(C)cc5[nH]ncc45)c3C)C2)C1 (single isomer, unassigned) [Example 98b, 1-(1-(2-acryloyl-2-azaspiro[3.3]heptan-6-yl)-4-(5-chloro-6-methyl-1H-indazol-4-yl)-5-methyl-1H-pyrazol-3-yl)-N,N,2,2-tetramethylpiperidine-4-carboxamide]	19
